By inhibition is commonly meant the percentage by which the read-out fell short of the control. A high value points to a strong effect. As a reminder, the IC50 is the concentration that inhibits the measured activity by half.

Values joined by “and” are separate entries in the source; they are usually repeats but may differ in a detail not shown here. Identical values can stand only once. Bounds are passed on as bounds.

Assay [1] concerns the target T1, porcine pancreatic lipase type II (Sus scrofa, UniProt P00591).
T1 construct: purchased sigma Aldrich L3126
T1 sequence (P00591 1-450): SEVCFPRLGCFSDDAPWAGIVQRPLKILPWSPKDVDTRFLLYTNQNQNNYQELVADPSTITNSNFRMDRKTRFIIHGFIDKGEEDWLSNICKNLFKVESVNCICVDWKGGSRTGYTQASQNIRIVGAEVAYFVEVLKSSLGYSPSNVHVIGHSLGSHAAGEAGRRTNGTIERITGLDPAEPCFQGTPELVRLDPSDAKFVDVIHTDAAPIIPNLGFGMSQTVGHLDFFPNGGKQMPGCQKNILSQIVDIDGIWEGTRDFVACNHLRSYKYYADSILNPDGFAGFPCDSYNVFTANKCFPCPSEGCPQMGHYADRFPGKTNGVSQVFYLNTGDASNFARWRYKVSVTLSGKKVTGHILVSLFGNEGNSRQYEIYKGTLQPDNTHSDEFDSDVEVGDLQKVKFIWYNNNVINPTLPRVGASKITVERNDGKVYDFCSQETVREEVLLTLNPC
As to the kind of experiment: Pancreatic lipase inhibition (p-NPD substrate). The assay is classed as biochemical. As to conditions: for IC50: porcine pancreatic lipase, p-NPD substrate, read-out: Pancreatic lipase IC50 (Mean ± SE). The procedure: The inhibition of pancreatic lipase activity was assessed using p-nitrophenyl dodecanoate (p-NPD, Sigma-Aldrich, St. Louis, MO, USA cat#N0252) as substrate and porcine pancreatic lipase type II (PPL, sigma Aldrich, cat#L3126) which was described previously with slight modification. Solutions of the provided compounds were prepared in final concentrations of 50 µM in 5% DMSO. […] In a Tris-HCl buffer (100 mM, pH 8); 50 μL of PPL (1 mg/mL) was incubated with 25 μL of samples/blank for 10 min at 37 °C. Then, 10 μL of solution p-NPD (10 mM, in isopropanol) was added followed by dilution of the final volume to 200 μL with Tris-HCl buffer. The mixture was incubated for 20 min at 37 °C and absorbance was then measured at 405 nm on a TECAN microplate reader (Männedorf, Switzerland). After that, the percentage of lipase inhibition was assessed (Supplementary Table S1 and Figure S1).

The subject of assay [2] is advanced glycation end products (AGEs) formation, arginine-methylglyoxal model. As to the kind of experiment: AGEs formation inhibition, arginine-methylglyoxal assay. In kind it is biochemical. Particulars: AGEs fluorescence, 72 h, 37 °C; read-out: Arginine-Methylglyoxal Model IC50 (Mean ± SE). The procedure: The isolated compounds were prepared at final concentrations of 500 µM in DMSO in the BSA-fructose assay, and 1000 µM in all other AGEs assays. Compounds that exceeded 50% inhibition at this concentration were serially diluted to determine their IC50. All tests were conducted using quercetin (positive control).
The determination of the inhibitory effect of the isolated compounds on the formation of AGEs in the arginine methylglyoxal model was used as described previously with slight modification. Briefly, in black 96-microwell plates, a sample was incubated for 72 h at 37 °C in the dark with methylglyoxal (53.3 mM, in distilled water) and 106.6 mM arginine (in 200 mM phosphate buffer, pH 7.4, with 0.02% sodium azide), (1:1:1 v/v/v). On a microplate reader (Fluostar Omega/BMG Labtech/Germany), fluorescent AGEs were detected using excitation and emission wavelengths of 355 nm and 460 nm, respectively. Triplicates of all experiments were performed.

The nature of assay [3]: DPPH assay. As to conditions: read-out: DPPH assay IC50 (Mean ± SE). The procedure: Isolated compounds were prepared in final concentrations of 1000 µM in DMSO. Compounds that exceeded 50% inhibition at this concentration were serially diluted to determine their IC50. Ascorbic acid was used as a positive control, prepared in a concentration of 100 µM in water from which six concentrations were prepared to calculate its IC50. The method is based on the reduction of free radical of 2,2-diphenyl-1-picrylhydrazyl (DPPH). Briefly, in a 96-well plate, 20 μL of the isolated compound was incubated for 20 min in the absence of light with 180 μL of DPPH reagent (100 μM). The reduction of intensity in the color of DPPH was assessed on a microplate reader (TECAN, Männedorf, Switzerland) at 540 nm (Supplementary Table S2).
In general terms: DPPH is a stable violet radical that fades when it is reduced.

A short description of assay [4]: ABTS assay. Particulars: ascorbic acid equivalents; mean ± SD, n = 3. The protocol:
DMSO was used for the preparation of 0.5 mg/mL concentrations of isolated compounds, meanwhile, the positive control (ascorbic acid) was used to prepare a stock solution of 1000 µM in water; from which seven concentrations were prepared including 7.812, 15.625, 31.25, 62.5, 125, 250 and 500 µM to construct the concentration-response curve (Supplementary Data Figure S2). The activity of the tested compounds to scavenge the free radicals of ABTS (2,2′-azino-bis (3-ethylbenzothiazoline-6-sulfonic acid)) was assessed according to the methodology reported previously with slight modifications.
Five milliliters of aqueous solution (7 mM) of ABTS was mixed with 88 µL potassium persulfate (140 mM) and the mixture was kept in the dark for 16 h to produce ABTS radical cation (ABTS^•+). Then methanol was added to the reaction mixture to dilute the formed ABTS^•+ solution to an absorbance of 0.700 (1:50) at 690 nm.
Ten microliters of the tested compound were incubated with 190 μL of ABTS^•+ solution in a 96-well plate for thirty minutes in the dark and the absorbance was measured later using a microplate reader (TECAN, Männedorf, Switzerland) at 690 nm. Data are represented as means (n = 3) ± SD and the antioxidant effect of the tested compounds was calculated as µM Ascorbic acid equivalents by substitution in the linear regression equation (Supplementary Figure S2).

Assay [5] in a line: Metal chelation assay (ferrozine). As to conditions: EDTA equivalents; mean ± SD. The protocol: Isolated compounds were dissolved in DMSO to prepare a concentration of 0.5 mg/mL, meanwhile, the positive control (EDTA) was used to prepare a stock solution of 100 µM in water; from which six concentrations were prepared including 5, 10, 20, 40, 50 and 80 µM to construct the dose-response curve. The assay was carried out as previously reported, with minor modifications. Briefly, in 96 wells plate (n = 6) 20 µL of the freshly prepared ferrous sulfate (0.3 mM) was mixed with 50 µL of the tested compound and incubated with 30 µL of ferrozine (0.8 mM) for 10 min at room temperature. Finally, reduction in color intensity was assessed at 540 nm using a microplate reader (Tecan, San Jose, CA, USA). Data are represented as means (n = 3) ± SD and the antioxidant effect of the extracts was calculated as µM EDTA equivalents by substitution in the linear regression equation (Supplementary Figure S4).

For the compound `O=C(O)[C@H]1O[C@@H](Oc2c(-c3ccc(O)c(O)c3)oc3cc(O)cc(O)c3c2=O)[C@H](O)[C@@H](O)[C@@H]1O` [Compound 2, quercetin-3-O-β-D-glucuronic acid], the inhibition at 50 µM in assay [1] was 1.92%. Further, the IC50 in assay [1] is above 50 µM; in assay [2], 1140 µM; in assay [3] it was 29 µM. The ABTS in assay [4] stood at 0.646 ±0.072 mM AAE/mg. Moreover, in assay [5], the Metal chelation was 8.29±0.05 µM EDTA eq/mg and 8.29 µM EDTA eq/mg.

Consider `O=c1cc(-c2ccc(O)cc2)oc2cc(O[C@@H]3O[C@H](CO)[C@@H](O)[C@H](O)[C@H]3O)cc(O)c12` [Compound 1, apeginin-7-O-β-D-glucoside], for which testing at 50 µM in assay [1] gave an inhibition of 4.48%. In addition, the IC50 was above 50 µM in assay [1], 474 µM in assay [2] and 366 µM in assay [3]. In addition, the ABTS in assay [4] was found to be 0.702±0.050 mM AAE/mg. For the same compound, in assay [5], the Metal chelation was 19.26±1.52 µM EDTA eq/mg and 19.26 µM EDTA eq/mg.

For the compound `O=C(O)[C@H]1O[C@@H](Oc2c(-c3ccc(O)c(O)c3)oc3cc(O)cc(O)c3c2=O)[C@H](O)[C@@H](O)[C@H]1O` [Compound 3, quercetin-3-O-β-D-galacturonic acid], 50 µM produced 2.26% inhibition in assay [1]. The results for the IC50 in assay [1], in assay [2] and in assay [3] were above 50 µM, above 1200 µM and 123 µM, respectively. Besides, in assay [4], the ABTS amounted to 0.210 ±0.012 mM AAE/mg. Moreover, the Metal chelation in assay [5] was 28.26±0.78 µM EDTA eq/mg and 28.26 µM EDTA eq/mg.

Regarding `C[C@@H]1O[C@@H](OC[C@H]2O[C@@H](Oc3c(-c4ccc(O)c(O)c4)oc4cc(O)cc(O)c4c3=O)[C@H](O)[C@@H](O)[C@@H]2O)[C@H](O)[C@H](O)[C@H]1O` [Compound 4, rutin], the results for the IC50 in assay [1], in assay [2] and in assay [3] were above 50 µM, 303 µM and 19 µM, respectively. Moreover, in assay [4], the ABTS was 1.972±0.059 mM AAE/mg. For the same compound, the Metal chelation in assay [5] was 28.96±2.07 µM EDTA eq/mg and 28.96 µM EDTA eq/mg.

Regarding `O=C(OC[C@H]1O[C@H](OC(=O)c2cc(O)c(O)c(O)c2)[C@H](O)[C@@H](OC(=O)c2cc(O)c(O)c(O)c2)[C@@H]1O)c1cc(O)c(O)c(O)c1` (stereo in doubt) [Compound 5, 1,3,6-trigalloyl glucose], the IC50 is above 50 µM in assay [1], 226 µM in assay [2] and 4 µM in assay [3]. Further, the “Pancreatic lipase inhibitory effect (in words)” value in assay [1] (till 50 μM concentration) is listed as “did not show any inhibitory effect”. Besides, the ABTS in assay [4] turned out to be 9.640±0.061 mM AAE/mg. In assay [5], the Metal chelation is 17.52±2.43 µM EDTA eq/mg and 17.52 µM EDTA eq/mg.

The values are drawn from publication PMC9139161, “Phenolics from Chrozophora oblongifolia Aerial Parts as Inhibitors of α-Glucosidases and Advanced Glycation End Products: In-Vitro Assessment, Molecular Docking and Dynamics Studies” (Biology, 2022).
